Source: patent publication US8349792B2, “Combination comprising CNDAC (2′-cyano-2′-deoxy-N4-palmitoyl-1-beta-D-arabinofuranosyl-cytosine) and a cytotoxic agent” (priority 2006, dated 2013)

What was measured:
[1] = test system: colon cancer; details: model of colon cancer, cited from earlier work
[2] = test system: H358 cells; experiment: H358 xenograft tumour growth; type: in vivo, mice (nu/nu); details: for mean tumour volume: day 22, sapacitabine 15 mg/kg oral, irinotecan 50 mg/kg i.p. weekly, SAHA 50 mg/kg oral
Description: Female mice (nu/nu) were obtained from Harlan. Animals were injected subcutaneously with ˜1×10^7 H358 cells/mouse at a single site on their flanks. Tumours were allowed to grow to ˜127 mm^3 before being pair-matched by tumour size into treatment groups (10 mice/group). One group was treated with sapacitabine (15 mg/kg) once daily by oral gavage for five consecutive days followed by a two day break; the treatment was then repeated for a total of three cycles. Irinotecan (50 mg/kg) was treated once weekly by intraperitoneal injection for three weeks. […] Mice were weighed at least twice a week to assess toxicity of the treatments and the tumours were measured with calipers at least twice a week to determine tumour growth. The tumour measurements were converted into volumes using the formula: tumour volume (mm^3)=width^2 (mm)×length (mm)×0.52. The percent tumour growth inhibition was determined with the formula: 1−(Change in treated tumour volume/change in control tumour volume)×100%. Statistical significance was determined using a two sided unpaired Student's T-test.

[3] = test system: p388 mouse leukaemia; experiment: p388 mouse leukaemia xenograft, survival; type: in vivo; details: P388 mouse model; CYC682 20 mg/kg PO QD×5×2, SAHA 75 mg/kg IP QD×12; compared to vehicle control
Excerpt: The p388 mouse leukaemia xenograft assesses drug combinations by the survival times of the mice in the various treatment arms.

[4] = human, in vivo; cited from earlier work
[5] = test system: Hut78 cells; experiment: Flow cytometry, propidium iodide DNA content (sub-G1); type: cell-based; details: for sub-G1 cells, dose dependence: 0.5×-2×IC50, 72 h; for sub-G1 cells, time dependence: 1×IC50, 16, 24, 48 or 72 h
Description: (§1) Hut78 cells were seeded in 10 cm plates at approximately 5×10^5 cells/plate and left to settle for 2 h. […] After treatment, cells were harvested and cell cycle analysis was carried our. Cells were pelleted by centrifugation, washed twice in PBS and then fixed overnight in 70% (v/v) ethanol at −20° C. Cells were stained with 50 μg/ml propidium iodide for 20 min and the DNA content analysed on the flow cytometer. Annexin V staining was performed as indicated in manufacturer's instructions, on live, non-fixed cells.
After drug treatment, cells were then harvested, stained with propidium iodide and their DNA content analysed by flow cytometry.
After treatment, cells were then harvested, stained with propidium iodide and their DNA content analysed by flow cytometry.

[6] = test system: Hut78 cells; experiment: Western blotting analysis in Hut78 cells; type: cell-based; details: 1×IC50, western blot
Description: Protein lysates were generated from 10 cm plates that were seeded at approximately 5×10^5 cells/well, in medium containing 10% FCS. […] Cells were collected by centrifugation (5 min×2,000 g), washed once with ice-cold buffer A (50 mM HEPES, pH 7.0, 20 mM NaCl, 1 mM DTT, protease inhibitors, 10 mM Sodium pyrophosphate, 10 mM Sodium Fluoride and 1 mM Sodium Orthovanadate), and resuspended in 0.3 ml of the same buffer. Cells were lysed by sonication (2×3 s bursts with probe sonicator), and the protein concentration of each tube determined using the BCA assay. Lysates (20-30 μg protein loaded/well) were resolved on Bis-Tris gels containing 10 or 12% acrylamide and transferred to nitrocellulose for analysis by western blotting. Membranes were blocked for 1 h at room temperature in PBS containing 0.02% (v/v) Tween 20 and 5% (w/v) fat-free dried milk. Antibody incubations were carried out overnight at 2-8° C. in PBS containing 0.02% (v/v) Tween 20 (PBST) containing 3% (w/v) dried milk. Nitrocellulose membranes were probed with the following antibodies:
Membranes were then washed three times in PBST, and then incubated for 1 h with the appropriate horseradish peroxidase-conjugated secondary antibody (Perbio) at 1:5,000 dilution. Finally, the membranes were washed three times in PBST prior to development using an enhanced chemiluminescence kit (Amersham Corporation, Buckinghamshire, U.K.) or the Millipore Immobilon HRP substrate.
Cells were harvested and the resulting cell lysates analysed by western blotting with the indicated antibodies. Data are representative of two independent experiments (FIG. 5). […] Homologous recombination is one of the major repair pathways for double strand DNA breaks, and RAD51 plays a key role in homologous recombination.

[7] = test system: Hut78 cells; experiment: Flow cytometry, Annexin V staining; type: cell-based; details: IC50, 24 h, 48 h or 72 h
Description: as §1
Cells were then harvested, stained with annexin V and analysed on the flow cytometer. Data are representative of two independent experiments. Annexin V labels live cells that are undergoing apoptosis or already dead. […] The synergy detected in the calcusyn analysis (Table 1) is therefore likely to be mainly due to inhibition of cell proliferation.

[8] = test system: Hut78 cells; experiment: 72 h IC50 by Alamar blue assay in Hut78; type: cell-based; details: read-out: 1×IC50 value in Hut78 cells
Description: Experiments were carried out in 96-well plates and the cell lines seeded at a density of 2500/well for H1299, 2500/well or 3000/well for H460, 5000/well for HL-60 cells, and 8,000 cells/well for Hut78, MV4-11 and PL-21 cells. […] Each compound was then tested in combination with CNDAC using three different treatment regimes: concomitant, CNDAC pre-treatment followed by HDAC inhibitor/topoisomerase inhibitor and CNDAC treatment after pre-treatment with HDAC inhibitor/topoisomerase inhibitor.

Row | Structure (SMILES) | anticancer activity [1] | increasing survival and preventing the spread of colon cancer metastases to the liver ([1]; versus gemcitabine or 5-FU) | tumour growth inhibition (% TGI) ([2]; day 22) [%] | mean tumour volume [2] [mm^3] | survival [3] | tolerability, dose limiting toxicity [4] | sub-G1 cells, dose dependence [5] | sub-G1 cells, time dependence [5] | effect on tumour growth (in words) ([2]; day 22) | Acetyl-histone H4 [6] | apoptotic/dead cells (annexin V) [7] | sub-G1 cells, share of the cell population ([5]; 1×IC50, by 72 h) [%] | H2A.X phosphorylation at serine 139 [6] | Mcl-1 [6] | IC50 [8] [nM]
1 | CCCCCCCCCCCCCCCC(=O)Nc1ccn([C@@H]2O[C@H](CO)[C@@H](O)[C@@H]2C#N)c(=O)n1 [sapacitabine, 2′-cyano-2′-deoxy-N^4-palmitoyl-1-β-D-arabinofuranosylcytosine] | strong anticancer activity | superior to either gemcitabine or 5-FU | ~75 | 229 | significant increase in the survival time | well tolerated in humans, with myelosuppression as the dose limiting toxicity | – | – | – | – | – | – | – | – | –
2 | O=C(CCCCCCC(=O)Nc1ccccc1)NO [SAHA, suberoylanilide hydramic acid, reference compound] | – | – | – | 517 | very little effect on survival | – | little effect on the cell cycle, except at 2×IC50, where it induced a small increase in sub-G1 cells | small increase in sub-G1 cells | no effect on tumour growth | increase in Acetyl-histone H4 | negligible increase in dead/dying cells | – | – | – | –
3 | N#C[C@H]1[C@H](O)[C@@H](CO)O[C@H]1n1ccc(N)nc1=O [CNDAC, 1-(2-C-cyano-2-deoxy-β-D-arabino-pentafuranosyl)-cytosine] | – | – | – | – | – | – | dose-dependent increase in sub-G1 cells | time-dependent increase in sub-G1 cells that became apparent by 48 h treatment | – | – | time-dependent increase in apoptotic/dead cells | ~30 | increase in H2A.X phosphorylation at serine 139 | decrease in Mcl-1 | 360
4 | CCc1c2c(nc3ccc(OC(=O)N4CCC(N5CCCCC5)CC4)cc13)-c1cc3c(c(=O)n1C2)COC(=O)[C@]3(O)CC [irinotecan] | – | – | ~75 | – | – | – | – | – | – | – | – | – | – | – | –
